Laboratory results from US20100221709A1, “METHODS FOR IDENTIFYING AGENTS THAT MODULATE APOPTOSIS IN CELLS THAT OVER-EXPRESS A BCL-2 FAMILY MEMBER PROTEIN” (priority 2005, published 2010).
Several values for one entry are separate records, joined by “and”; a condition that tells them apart may be missing. Equal values may be shown once.

Tests used:
Bcl-xL(ΔC) WT = molecular target: T1, Bcl-xL(ΔC) WT (Homo sapiens, UniProt Q07817); assay: Pore assay, calcein release from large unilamellar vesicles; assay type: biochemical
T1 construct: inferred from pET22b(+) NdeI/XhoI cloning and nickel-NTA purification) (C); made in house; host or cells: Escherichia coli BL21(DE3) carrying pUB520
T1 sequence (Q07817 1-211 limits assumed, stated change not applied): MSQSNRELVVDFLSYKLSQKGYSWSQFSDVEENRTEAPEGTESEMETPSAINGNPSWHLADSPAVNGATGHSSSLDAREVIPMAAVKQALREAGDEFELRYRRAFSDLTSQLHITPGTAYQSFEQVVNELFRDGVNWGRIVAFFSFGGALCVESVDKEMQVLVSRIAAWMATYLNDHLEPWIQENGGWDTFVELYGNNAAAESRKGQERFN
Procedure: Large unilamellar vesicles composed of 60% dioleoylphophatidylcholine and 40% dioleoylphosphatidylglycerol were prepared by the extrusion method of Mayer et al., supra. Lipid stocks, in chloroform, were mixed and dried under a stream of nitrogen gas. The lipid was resuspended by vortexing for 30 min in a solution of 40 mM calcein (Molecular Probes), 25 mM KCl, and 10 mM KOAc, pH 5.0. After 10 freeze-thaw cycles, the lipid suspension was extruded through two 0.1 μm pore diameter Nucleopore filters. Non-entrapped dye was removed by passage over a Sephadex G10 column (Amersham Biosciences). Lipid concentration was measured using the ammonium ferrothiocyanate method (Stewart, Anal. Biochem. 104:10-14, 1980).
For pore assays, recombinant truncated Bcl-2 family protein or mutant protein (Bcl-xL(ΔC)) (500 nM) was added to large unilamellar vesicles (60 μM lipid concentration) in 100 mM KCl, 10 mM KOAc, pH 5.0, and fluorescence measured (490 nm excitation, 520 nm emission) with a Fluoromax-3 spectrophotometer. Peptides of the BH3 domain were incubated with the Bcl-xL(ΔC) 5 min prior to mixing with liposomes. AA1 was added to liposomes 1 min before adding the Bcl-xL(ΔC) protein. Samples for kinetic assays were analyzed in a thermostatted cuvette at 37° C. with constant stirring. Dose responses were measured in black quartz microplates (Hellma) at room temperature. Calcein release was expressed as percentage of maximum release with detergent lysis (0.1% Triton X-100).

Bcl-xL(ΔC) F97W = molecular target: T2, Bcl-xL(ΔC) F97W (Homo sapiens, UniProt Q07817, F97W); assay: Fluorescence anisotropy binding
T2 construct: inferred from pET22b(+) NdeI/XhoI cloning and nickel-NTA purification) (C); made in house; host or cells: Escherichia coli BL21(DE3) carrying pUB520
T2 sequence (Q07817 1-211 F97W limits assumed): as the sequence (Q07817 1-211 limits assumed, stated change not applied) above, with F97W counted along it
Procedure: (§1) A pET22b (Novagen) vector coding for Bcl-xL(ΔC), a mutant Bcl-xL protein without the COOH terminal region, was transformed into Escherichia coli BL21(DE3) cells that carried pUB520 (encoding human Arg tRNA) and grown to an A600 of 0.6. Protein expression was induced with 0.1 mM isopropyl β-D-thiogalactoside at 30° C. The cells were resuspended 1:5 (w/v) in PEB buffer (50 mM Tris, pH 8.0, 200 mM NaCl, 0.2 mM phenylmethylsulfonyl fluoride, 5 mM β-mercaptoethanol, 5 mM imidazole, and 1% (v/v) glycerol), and stirred for 20 min at 4° C. Cells were disrupted by pulse sonication, and the soluble fraction was loaded onto a nickel-nitrilotriacetic acid column (Qiagen) equilibrated with PEB buffer. The column was washed with 40 mM imidazole, eluted with 200 mM imidazole, and the protein fractions were pooled and dialyzed (50 mM Tris, pH 8.0, 200 mM NaCl, 0.2 mM phenylmethylsulfonyl fluoride) at 4° C. overnight. The dialyzed protein was concentrated to 10 mg/ml and fractionated on a Superdex 75 gel filtration column (Amersham Biosciences). The fractions containing Bcl-xL(ΔC) protein were pooled, exchanged into low-salt buffer (same as for previous dialysis buffer, except 50 mM NaCl), and loaded onto a MonoQ anion exchange column (Amersham Biosciences). Protein was eluted from the column with increasing NaCl gradient, pooled and concentrated.
(§2) All reagents were prepared in 0.2 μm-filtered PBS with fresh 1 mM DTT. […] Slit widths were set at 10 nm for both excitation and emission.

Bcl-xL(ΔC) F146L = molecular target: T3, Bcl-xL(ΔC) F146L (Homo sapiens, UniProt Q07817, F146L); assay: Fluorescence anisotropy binding
T3 construct: inferred from pET22b(+) NdeI/XhoI cloning and nickel-NTA purification) (C); made in house; host or cells: Escherichia coli BL21(DE3) carrying pUB520
T3 sequence (Q07817 1-211 F146L limits assumed): as the sequence (Q07817 1-211 limits assumed, stated change not applied) above, with F146L counted along it
Procedure: as §1, §2

Bcl-xL(ΔC) A142L = molecular target: T4, Bcl-xL(ΔC) A142L (Homo sapiens, UniProt Q07817, A142L); assay: Fluorescence anisotropy binding
T4 construct: inferred from pET22b(+) NdeI/XhoI cloning and nickel-NTA purification) (C); made in house; host or cells: Escherichia coli BL21(DE3) carrying pUB520
T4 sequence (Q07817 1-211 A142L limits assumed): as the sequence (Q07817 1-211 limits assumed, stated change not applied) above, with A142L counted along it
Procedure: as §1, §2

[1] = system: TAMH cells over-expressing Bcl-xL WT; assay: STS and antimycin toxicity, Alamar Blue viability; assay type: cell-based, murine; details: 24 h treatment
Procedure: (§3) TAMH cells were transfected with DNA encoding each of the mutant Bcl-xL proteins by lipofection (See Example 1 for method). For analysis of Bcl-xL expression, 20 μg of cell protein was separated by 20% SDS-PAGE and transferred to nitrocellulose membranes. Immunodetection of Bcl-xL was carried out using rabbit anti-Bcl-xL antibody and Protein A/horseradish peroxidase conjugate, followed by chemiluminescent detection. Cells were grown to about 80% confluence in 96-well plates followed by addition of 100 μl of 2×AA1 or staurosporine (STS) solution in complete medium. STS is a natural product originally isolated from the bacterium Streptomyces and found to be capable of inducing apoptosis in certain cells and which induction of apoptosis could be blocked by the expression of a Bcl-2 family protein. Cell viability was determined spectrophotometrically after 24 h treatment as the ratio of reduced and oxidized Alamar Blue (BIOSOURCE) at 570 nm and 600 nm, respectively. All results were normalized against DMSO controls. LD50 values were calculated by non-linear regression analysis using Prism software (Graphpad).

[2] = system: TAMH cells over-expressing Bcl-xL F97W; assay: STS and antimycin toxicity, Alamar Blue viability; assay type: cell-based, murine; details: 24 h treatment
Procedure: as §3

[3] = system: TAMH cells over-expressing Bcl-xL E92L; assay: STS and antimycin toxicity, Alamar Blue viability; assay type: cell-based, murine; details: 24 h treatment
Procedure: as §3

[4] = system: TAMH cells over-expressing Bcl-xL A142L; assay: STS and antimycin toxicity, Alamar Blue viability; assay type: cell-based, murine; details: for LD50: 24 h treatment
Procedure: as §3

[5] = system: TAMH cells over-expressing Bcl-xL F146L; assay: STS and antimycin toxicity, Alamar Blue viability; assay type: cell-based, murine; details: for LD50: 24 h treatment
Procedure: as §3

RPMI-8226 cells [6] = assay: GI50 assay, MTT cell proliferation; assay type: cell-based, human
Procedure: RPMI-8226 cells were grown in 96 well plates for 24 h prior to addition of 2-methoxy antimycins. Antimycin stocks in dimethyl sulfoxide (DMSO) were serially diluted in RPMI. Cells were incubated for 48 h with compounds at final compound concentrations ranging from 10^−4 to 10^−8 M. MTT cell proliferation assays were performed in quadruplicate and percent growth inhibitions were calculated as (A570 (control cells)-A570 (treated cells))/A570 (control cells). GI50 was extrapolated from semi-log plots of the dose response for each compound. […] After 72 h drug exposures, 1 μCi/ml [^3H]-thymidine was added to wells. Cells were incubated for an additional 24 h, and then transferred to GF/C filter plates (Packard) using a plate washer. Filters were dried, added to scintillant, and counted in a TopCount® scintillation counter (Packard). Drug response is expressed as the percentage of vehicle-treated controls, and each value shown is the average of three determinations.

[7] = system: TAMH vector-only control cells; assay: STS toxicity, Alamar Blue viability; assay type: cell-based, murine; details: 24 h treatment
Procedure: as §3

[8] = system: RPMI-8226 human myeloma cells; assay: RPMI-8226 myeloma tumor xenografts
Procedure: Six to nine-week old Nod/Les2 Scid/J mice were inoculated with 3×10^7 RPMI-8226 cells by interscapular subcutaneous injection. Mice were maintained under specific pathogen-free conditions. Palpable tumor nodules were measured in two dimensions with calipers and tumor volumes calculated in mm^3 as (length×width^2)/2. Blood samples were collected by retro-orbital bleed for human light chain measurements by ELISA with lambda-specific antibody and horseradish peroxidase detection (BD Biosciences). Animals were sacrificed by halothane inhalation, and histologic examination of tumors and internal organs was performed. All experiments were approved by the Fred Hutchinson Cancer Research Center Institutional Animal Care and Use Committee.
(§4) 2-OMe antimycin A1 was synthesized from antimycin A1 (Sigma) and dissolved in phosphate-buffered saline with 20% Cremaphor, 25% ethanol (3 mg/ml) for parenteral administration by tail vein injection in a total volume of 100 μl. Control mice received injections of Cremaphor/ethanol vehicle.
Tissues were fixed in 10% buffered formalin, embedded in paraffin, sectioned and stained with hematoxylin and eosin. TUNEL staining was performed using 0.3 units/ml terminal deoxynucleotidyl transferase and biotinylated dATP with development by avidin-biotin peroxidase method. Bcl-xL immunohistochemistry was performed using anti-Bcl-xL antibody (BD Biosciences) followed by biotinylated secondary antibody and peroxidase-labeled ABC reagent (Vector, Burlingame Calif.).
(§5) To determine whether 2-OMeAA1 has anti-tumor activity in vivo, a total of 12 NOD/SCID mice in three experiments were inoculated with 3×10^7 RPMI-8226 human myeloma cells by interscapular subcutaneous injection. […] In total, six mice received three intravenous doses of 10 mg/kg 2-OMeAA1 on alternate days starting on day 6. Six control mice received injections of Cremaphor/ethanol vehicle without drug.

RPMI-8226 cells [9] = assay: Combined cytotoxicity with standard anticancer agents; assay type: cell-based, human; details: suboptimal combinations, 24 h
Procedure: Concentrations of standard chemotherapeutic agents were adjusted to achieve <20% cell death as single agents over 24 h treatments. Cells treated with 20 μg/ml 2-OMe antimycin A1 and indicated concentrations of etoposide, melphalan or daunorubicin. Predicted viability at 24 h is derived from additive cytotoxicity of single agents (open symbols). Observed viability for combination (closed symbols). Each symbol represents separate experiment. Viabilities (PI-negative) are normalized to untreated cells.

NOD/SCID mice = assay: In vivo toxicity, intravenous dosing
Procedure: as §4, §5

[10] = LC/MS analyses of plasma after administration; assay type: in vivo, mice; details: preliminary LC/MS analyses

## CCCCCC[C@H]1C(=O)O[C@H](C)[C@H](NC(=O)c2cccc(NC=O)c2O)C(=O)O[C@@H](C)[C@@H]1OC(=O)CC(C)C [AA1, antimycin A1]
Bcl-xL(ΔC) WT
  effect on Bcl-xL pore-forming activity (FIG. 3A): inhibited
Bcl-xL(ΔC) F97W
  fold increase in Kd of AA1 binding compared with Bcl-xL wt(ΔC): 8 fold
Bcl-xL(ΔC) F146L
  fold decrease in AA1 affinity: ~10 fold
Bcl-xL(ΔC) A142L
  fold increase in Kd of AA1 binding compared with Bcl-xL wt(ΔC): 20 fold
[1]
  LD50: 0.47 ± 0.07 µM
[1]; listed as antimycin A1
  LD50: 0.47 µM
[2]
  LD50: 5.12 ± 0.94^2 μM
[2]; listed as antimycin A1
  LD50: 5.12 ± 0.9 µM
[3]
  LD50: 1.72 ± 0.34^2 μM
[3]; listed as antimycin A1
  LD50: 1.72 ± 0.3 µM
[4]
  sensitivity of mutant cells to antimycin A1: completely insensitive
  LD50: >10 µM
[5]
  sensitivity of mutant cells to antimycin A1: completely insensitive
  LD50: >10 µM

## 2-OMe antimycin A5
RPMI-8226 cells [6]
  activity (GI50) relative to 2-OMe antimycin A1, A2 and A3: approximately ⅓

## CN[C@@H]1C[C@H]2O[C@@](C)([C@@H]1OC)n1c3ccccc3c3c4c(c5c6ccccc6n2c5c31)C(=O)NC4 [STS, staurosporine]
[7]
  LD50: 0.11 ± 0.01 µM
[1]
  LD50: 0.58 ± 0.1 µM and 0.58 ± 0.14 µM
[2]
  LD50: 0.34 ± 0.10 µM
[3]
  LD50: 0.52 ± 0.12 µM
[4]
  LD50: 0.49 ± 0.11 µM
[5]
  LD50: 0.38 ± 0.04 µM

## CCCCCC[C@H]1C(=O)O[C@H](C)[C@H](NC(=O)c2cccc(NC=O)c2OC)C(=O)O[C@@H](C)[C@@H]1OC(=O)CC(C)C [2-OMeAA1, 2-OMe antimycin A1]
Bcl-xL(ΔC) WT
  effect on Bcl-xL pore-forming activity (FIG. 3A): inhibited
[8]; 10 mg/kg
  adverse effects in treated mice: No adverse effects
[8]; 10 mg/kg i.v., after the third injection
  average reduction of serum levels of human light chain: 87%
[8]; 10 mg/kg on alternate days, days 26 to 31
  mice with regression of tumor nodules, second round: six of six
[8]; 24 and 48 h after a single 10 mg/kg intravenous treatment
  apoptosis in tumor sections: widespread apoptosis
[8]; three i.v. doses of 10 mg/kg on alternate days from day 6
  mice with tumor regression during treatment: Five of six
RPMI-8226 cells [9]
  combined killing with etoposide or melphalan: Supra-additive killing
NOD/SCID mice; 10 mg/kg
  histologic examination of normal tissues: No cellular injury or inflammation
NOD/SCID mice; schedule of 3 intravenous doses on alternate days
  LD50 dose: 20 mg/kg
NOD/SCID mice; three intravenous doses at 10 mg/kg on alternate days
  mice survived without apparent toxicity: 6/6
[10]
  reformation of antimycin A1 in plasma: have not demonstrated reformation of antimycin A1
